Source: US20120190004A1, “METHODS AND COMPOSITIONS FOR THE CRYOPRESERVATION OF DUCKWEED” (Biolex Therapeutics, Inc., priority 2009, published 2012)

Legend:
Assay in all cases: Cryopreservation success rate after dormancy induction in sugar-supplemented medium
L. sp. Branson = assay type: in vivo
Procedure: (§1) Lemna minor duckweed plants were cultured on Schenk and Hildebrandt media with 20 mg/ml sucrose at an aerial temperature of between 21° C. and 30° C. and light levels ranging from 200 μM·M^−2·sec^−1 to 450 μM·M^−2·sec^−1 for 1 day up to 1 year. Three frond colonies (each frond colony comprised one or more daughter fronds attached to the mother frond) were aseptically transferred into a 2.0-mL cryovial containing a 900 μL solution of Schenk and Hildebrandt media, […] step. The frond colonies were incubated in this sugar solution for 21-30 days. Each 24-hour photoperiod was comprised of fluctuations in temperature and light levels. Specifically, the daytime hours consisted of culturing the duckweed frond colony at an aerial temperature of 10° C. with a light level of about 25 μM·M^−2·sec^−1 to about 50 μM·M^−2·sec^−1 for a duration of 3 hours, followed by an aerial temperature of 15° C. at a light level of about 25 μM·M^−2·sec^−1 to about 75 μM·M^−2·sec^−1 for a duration of 6 hours, and an aerial temperature of 10° C. with a light level of about 25 μM^−2·sec^−1 to about 50 μM·M^−2·sec^−1 for a duration of 3 hours. During the nighttime hours of the 24-hour photoperiod, the duckweed frond colonies were cultured at an aerial temperature of 4° C. in the absence of light for a duration of 12 hours.
(§2) The duckweed frond colonies were dehydrated in a laminar flow hood in 900 μL of a cryoprotective solution, comprising 1.92 M DMSO, […], 3.26 M glycerol, and 0.4 M sucrose at pH 5.8. The cryovials were incubated in this solution at 4° C. for 30 minutes to 2 hours in the absence of light. Following the incubation, the cryoprotective solution was removed and replaced with 900 μL of fresh cryoprotective solution.
(§3) The duckweed frond colonies were frozen in a slow rate freezer according to the following freezing protocol. The cryovials containing the duckweed frond colonies were held at 4° C. and the temperature was lowered to −4° C. at 1° C. per minute, to −40° C. at 25° C. per minute, and then raised to −12° C. at 10° C. per minute. The temperature was again lowered to −40° C. at 1° C. per minute, to −90° C. at 10° C. per minute, and then lowered to −150° C. at 10° C. per minute. Once frozen, the vials containing the frond colonies were transferred to the vapor phase of liquid nitrogen for storage.
(§4) After up to 17 months in storage, the frozen duckweed frond colonies were thawed and recovered as follows. The vials containing the frozen duckweed frond colonies were transferred from the liquid nitrogen storage tank to a laminar flow hood and were thawed at room temperature for approximately ten minutes. The cryoprotective solution was removed and replaced with 900 μL of Schenk and Hildebrandt medium, supplemented with 1.2 M sucrose, followed by a ten minute incubation at room temperature. The 1.2 M sucrose was subsequently diluted by a series of five dilutions whereby 450 μL of the 1.2 M sucrose solution was removed and replaced with 450 μL of Schenk and Hildebrandt medium supplemented with 20 mg/ml sucrose. Following the serial dilutions, the frond colonies were transferred to a petri dish with Schenk and Hildebrandt medium, supplemented with 10 mg/ml sucrose and 1% (weight/volume) agar. The duckweed frond colonies were cultured at an aerial temperature of between 21° C. and 30° C. with light levels ranging from about 20 μM·M^−2·sec^−1 to about 100 μM·M^−2·sec^−1 for 7-14 days prior to calculating the success rate of the cryopreservation procedure.
(§5) The cryopreservation success rate was calculated by the total number of visible daughter fronds (or daughter fronds with viable tissue) to survive the freezing process and successfully reproduce new daughter fronds as a percentage of the total number of visible daughter fronds that were frozen. Viability of tissue or of daughter fronds was assessed by the presence of green tissue and the ability of these fronds or frond tissues to reproduce and generate new daughter fronds. […]

IFN61-B2-101 line = assay type: in vivo, Lemna minor
Procedure: as §1, §2, §3, §4, §5

L. minor = assay type: in vivo, Lemna minor
[1] = second set of experiments, single sugars 90 mg/ml unless the label says 20 mg/ml, six sugar combo 15 mg/ml each, listed as 20 mg/ml Sucrose
[2] = sugars at two concentrations: 90 mg/ml (1X) and 270 mg/ml (3X), listed as Sucrose 1X
[3] = sugars at two concentrations: 90 mg/ml (1X) and 270 mg/ml (3X), listed as Sucrose 3X
[4] = various concentrations of six sugar combination: total sugar 90 (1X), 216 (2.4X), 342 mg/ml (3.8X), or 20 mg/ml sucrose

OC[C@H]1O[C@@](CO)(O[C@H]2O[C@H](CO)[C@@H](O)[C@H](O)[C@H]2O)[C@@H](O)[C@@H]1O [Sucrose, sucrose]
Cryopreservation success rate (L. sp. Branson; first set of experiments, single sugars 90 mg/ml unless the label says 20 mg/ml, six sugar combo 15 mg/ml each, in Schenk and Hildebrandt media during dormancy induction): 100% (23/23)
Cryopreservation success rate (L. sp. Branson; first set of experiments, single sugars 90 mg/ml unless the label says 20 mg/ml, six sugar combo 15 mg/ml each, in Schenk and Hildebrandt media during dormancy induction, listed as 20 mg/ml Sucrose): 96% (24/25)
Cryopreservation success rate (L. sp. Branson; second set of experiments, single sugars 90 mg/ml unless the label says 20 mg/ml, six sugar combo 15 mg/ml each): 87.5% (14/16)
Cryopreservation success rate (L. sp. Branson; [1]): 88.2% (15/17)
Cryopreservation success rate (L. sp. Branson; [2]): 100% (19/19)
Cryopreservation success rate (L. sp. Branson; [3]): 0% (0/14)
Cryopreservation success rate (L. sp. Branson; [4]): 100% (24/24)
Cryopreservation success rate (IFN61-B2-101 line; [2]): 89.5%
Cryopreservation success rate (IFN61-B2-101 line; [3]): 0%
Cryopreservation success rate (IFN61-B2-101 line; [4]): 100%
Cryopreservation success rate (L. minor; dormancy induction 7-Day, 4° C. with no light): 0% (0/28)
Cryopreservation success rate (L. minor; dormancy induction 7-Day, 9-10° C. with no light): 14.82% (4/27)
Cryopreservation success rate (L. minor; dormancy induction 7-Day, fluctuating temperature and light): 33.3% (9/27)
Cryopreservation success rate (L. minor; dormancy induction 7-Day, fluctuating temperature with no light): 65.39% (17/26)
Cryopreservation success rate (L. minor; dormancy induction 14-Day, 4° C. with no light): 0% (0/22)
Cryopreservation success rate (L. minor; dormancy induction 14-Day, 9-10° C. with no light): 73.08% (19/26)
Cryopreservation success rate (L. minor; dormancy induction 14-Day, fluctuating temperature and light): 96% (24/25)
Cryopreservation success rate (L. minor; dormancy induction 14-Day, fluctuating temperature with no light): 100% (24/24)
Cryopreservation success rate (L. minor; dormancy induction 21-Day, 4° C. with no light): 4.17% (1/24)
Cryopreservation success rate (L. minor; dormancy induction 21-Day, 9-10° C. with no light): 91.67% (22/24)
Cryopreservation success rate (L. minor; dormancy induction 21-Day, fluctuating temperature with no light): 86.96% (20/23)
Cryopreservation success rate (L. minor; dormancy induction 28-Day, 4° C. with no light): 0% (0/20)
Cryopreservation success rate (L. minor; dormancy induction 28-Day, 9-10° C. with no light): 97.37% (37/38)
Cryopreservation success rate (L. minor; dormancy induction 28-Day, fluctuating temperature and light): 94.29% (33/35)
Cryopreservation success rate (L. minor; dormancy induction 28-Day, fluctuating temperature with no light): 100% (30/30)
Cryopreservation success rate (L. minor; first set of experiments, single sugars 90 mg/ml unless the label says 20 mg/ml, six sugar combo 15 mg/ml each, listed as 20 mg/ml Sucrose): 42.3% (11/26)
Cryopreservation success rate (L. minor; [1]): 43.8% (7/16)
Cryopreservation success rate (L. minor; [2]): 88.9% (16/18)
Cryopreservation success rate (L. minor; [3]): 0% (0/11)
Cryopreservation success rate (L. minor; [4]): 92.9% (26/28)
